Earlier results in patent publication US12458653B2, “Cannabis based therapeutic and method of use” (priority 2018, dated 2025).
Read-outs that look alike come from different tables or passages of the source.

Experiments:
[1] = tested on: chemotherapy-induced nausea and vomiting; conditions: versus available anti-emetic regimens
[2] = extensive liver metabolism

For CCCCCc1cc(O)c2c(c1)OC(C)(C)[C@@H]1CCC(C)=C[C@@H]21 [Dronabinol], the “relief of chemotherapy-induced nausea and vomiting” value [1] is given as “little relief over available anti-emetic regimens”.

For CCCCCc1cc(O)c2c(c1)OC(C)(C)[C@@H]1CCC(CO)=C[C@@H]21 [11-OH-THC], the “peak concentration in the urine” value (after 3 hours, smoking approximately 27 mg of Δ9-THC) is given as 77.0 ± 329.7 ng/mL and the “peak concentration in the urine” value (within two hours after smoking approximately 27 mg of Δ9-THC in a cigarette) is given as 3.2 to 53.3 ng/mL.

In the case of CCCCCc1cc(O)c2c(c1)OC(C)(C)[C@@H]1CCC(C(=O)O)=C[C@@H]21 [THC—COOH], the “peak concentration in the urine” value (after 4 hours, smoking approximately 27 mg of Δ9-THC) is given as 179.4 ng/mL, the urinary excretion half-life (after seven days of monitoring) is given as “approximately 30 hours” and the “time THC-COOH is detectable in plasma” value (after smoking a cigarette containing 16-34 mg of Δ9-THC) is given as 2 to 7 days. The urinary excretion half-life (after twelve days of monitoring) was 44 to 60 h, the “initial concentration of THC-COOH in serum” value (clinical study among 52 volunteers) was 14 to 49 ng/mL and the THC-COOH detection time (single chronic user) was 25 days.

In the case of CCCCCc1cc(O)c2c(c1)OC(C)(C)[C@@H]1CCC(C)=C[C@@H]21 [Δ9-THC, delta-9 tetrahydrocannabinol], the “oral bioavailability of Δ9-THC” value [2] is given as 4-12%, the half-life (frequent users) is given as 120 to 312 h and the half-life (infrequent user) is given as 31.2 h. The “average plasma clearance rate” value (men) was 14.9 ± 3.7 L/h, the plasma clearance rate (naïve cannabis users) was “approximately 36 L/hour” and the plasma clearance rate (regular cannabis users) was 60 L/h. For the same compound, the “average plasma clearance rate” value (women) was 11.8 ± 3 L/h.
